The values below come from PMC7494974, “Olfactory Reception of Host Alarm Pheromone Component by the Odorant-Binding Proteins in the Samurai Wasp, Trissolcus japonicus (Hymenoptera: Scelionidae)” (Frontiers in Physiology, 2020).

Holding throughout (assay type): binding
Assay [1] addresses T1, TjapOBP3 (Trissolcus japonicus, UniProt A0A7G6J4J9).
T1 construct: gene OBP3; mature, signal peptide removed; E. coli BL21; His-tag cleaved; ~15 kDa on SDS-PAGE; classical OBP; by primers starts KLSVPQLK and ends CWYHKNPEMYIFP
T1 sequence (A0A7G6J4J9 22-142): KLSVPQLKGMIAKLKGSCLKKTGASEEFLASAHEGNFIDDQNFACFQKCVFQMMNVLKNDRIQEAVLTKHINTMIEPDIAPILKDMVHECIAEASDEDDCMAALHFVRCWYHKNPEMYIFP
Nature of the assay: fluorescence titration, Scatchard. The settings on record: 50 mM Tris-HCl pH 7.4; excitation 337 nm; fluorescent probe.

Assay [2] addresses T2, TjapOBP2 (Trissolcus japonicus, UniProt A0A7G6J4J8).
T2 construct: gene OBP2; mature, signal peptide removed; E. coli BL21; His-tag cleaved; ~15 kDa on SDS-PAGE; classical OBP; by primers starts KRPDFIDDDM and ends QCIINNCPEMWFIV
T2 sequence (A0A7G6J4J8 23-142): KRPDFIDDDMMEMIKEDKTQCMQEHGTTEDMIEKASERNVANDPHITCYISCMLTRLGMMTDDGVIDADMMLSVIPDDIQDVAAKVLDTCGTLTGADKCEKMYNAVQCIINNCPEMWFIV
As to the kind of experiment: fluorescence titration, Scatchard. Particulars: 50 mM Tris-HCl pH 7.4; excitation 337 nm; fluorescent probe.

Assay [3] deals with T1, TjapOBP3. As to the kind of experiment: competitive fluorescence displacement of 1-NPN. Particulars: 50 mM Tris-HCl pH 7.4; excitation 337 nm; competitive with 1-NPN.
Assay [4] addresses T2, TjapOBP2. Nature of the assay: competitive fluorescence displacement of 1-NPN.

For orientation: IC50 means the concentration that gives 50% inhibition. Low readings indicate inhibition by little substance, high ones a need for much substance.

For the molecule `c1ccc(Nc2cccc3ccccc23)cc1` [1-NPN], the K1-NPN result on TjapOBP3 [1] and on TjapOBP2 [2] was “The fluorescent probe 1-NPN was used to bind the selected OBPs” in each case.

For the molecule `CCCCCCC/C=C/C=O` [(E)-2-decenal], the “competitive fluorescence displacement of 1-NPN” value on TjapOBP3 [3] was “TjapOBP1 and TjapOBP3 had a weak ability to bind (E)-2-decenal”. The IC50 at TjapOBP2 [4] is 7.92 ± 1.03 µM.
